Our source for the MIC values is ChEMBL document CHEMBL3091428, “Synthesis and initial biological evaluation of substituted 1-phenylamino-2-thio-4,5-dimethyl-1H-imidazole derivatives” (Bioorg Med Chem Lett, 2013).

In brackets after ≈: the same amount, converted by molar mass.

Common to all, as to assay type: functional
One test has as its system Pichia kudriavzevii. Description: Antimicrobial activity against Candida krusei ATCC 6258 after 24 hrs by broth microdilution method. Particulars: ATCC 6258, 24 h.
The subject of a further test is Nakaseomyces glabratus. Description: Antimicrobial activity against Candida glabrata ATCC 90030 after 24 hrs by broth microdilution method. Particulars: ATCC 90030, 24 h.
The next test relates to Listeria monocytogenes. Description: Antimicrobial activity against Listeria monocytogenes ATCC 19115 after 24 hrs by broth microdilution method. Particulars: ATCC 19115, 24 h.
The test system of a further test is Candida albicans. The experiment in a line: Antimicrobial activity against Candida albicans ATCC 90028 after 24 hrs by broth microdilution method. Particulars: ATCC 90028, 24 h.
A further test deals with Staphylococcus aureus. The experiment in a line: Antimicrobial activity against Staphylococcus aureus ATCC 25923 after 24 hrs by broth microdilution method. Particulars: ATCC 25923, 24 h.
Test [1] has as its system Enterococcus faecalis. The experiment in a line: Antimicrobial activity against Enterococcus faecalis ATCC 51299 after 24 hrs by broth microdilution method. Particulars: ATCC 51299, 24 h.
For test [2], the system named is Enterococcus faecalis. The experiment in a line: Antimicrobial activity against Enterococcus faecalis ATCC 29212 after 24 hrs by broth microdilution method. Particulars: ATCC 29212, 24 h.
The next test has as its system Pseudomonas aeruginosa. Description: Antimicrobial activity against Pseudomonas aeruginosa ATCC 27853 after 24 hrs by broth microdilution method. The note with it: ATCC 27853, 24 h.
For the next test, the system named is Klebsiella pneumoniae. The experiment in a line: Antimicrobial activity against Klebsiella pneumoniae ATCC 13883 after 24 hrs by broth microdilution method. The note with it: ATCC 13883, 24 h.
For test [3], the system named is Escherichia coli. The experiment in a line: Antimicrobial activity against Escherichia coli ATCC 25922 after 24 hrs by broth microdilution method. The note with it: ATCC 25922, 24 h.
Test [4] concerns Escherichia coli. Description: Antimicrobial activity against Escherichia coli ATCC 35218 after 24 hrs by broth microdilution method. Particulars: ATCC 35218, 24 h.

Consider `COc1ccc(Nn2c(SCC(=O)c3ccc(F)cc3)nc(C)c2C)cc1`, for which the MIC is 400 µg/mL (≈ 1040 µM) in the test on Pichia kudriavzevii; 400 µg/mL (≈ 1040 µM) against Nakaseomyces glabratus; 400 µg/mL (≈ 1040 µM) in the test with Listeria monocytogenes; 400 µg/mL (≈ 1040 µM) with Candida albicans; 800 µg/mL (≈ 2080 µM) in the test on Staphylococcus aureus; 800 µg/mL (≈ 2080 µM) in the test on Enterococcus faecalis [1]. Also, the MIC was determined as 1600 µg/mL (≈ 4150 µM) in the test on Enterococcus faecalis [2]; 800 µg/mL (≈ 2080 µM) against Pseudomonas aeruginosa; 800 µg/mL (≈ 2080 µM) with Klebsiella pneumoniae; 800 µg/mL (≈ 2080 µM) in the test with Escherichia coli [3]; 800 µg/mL (≈ 2080 µM) against Escherichia coli [4].
Turning to `COc1ccc(Nn2c(SCC(=O)c3ccc(F)c(F)c3)nc(C)c2C)cc1`, the MIC with Pichia kudriavzevii was found to be 400 µg/mL (≈ 991 µM); against Nakaseomyces glabratus it was 800 µg/mL (≈ 1980 µM); against Listeria monocytogenes it was 800 µg/mL (≈ 1980 µM); against Candida albicans, 400 µg/mL (≈ 991 µM); against Staphylococcus aureus, 800 µg/mL (≈ 1980 µM); against Enterococcus faecalis [1], 800 µg/mL (≈ 1980 µM). In addition, the MIC against Enterococcus faecalis [2] was determined as 1600 µg/mL (≈ 3970 µM); in the test on Pseudomonas aeruginosa, 800 µg/mL (≈ 1980 µM); in the test with Klebsiella pneumoniae, 800 µg/mL (≈ 1980 µM); against Escherichia coli [3] it was 800 µg/mL (≈ 1980 µM); against Escherichia coli [4] it was 800 µg/mL (≈ 1980 µM).
`COc1ccc(Nn2c(SCC(=O)c3cccc(Cl)c3)nc(C)c2C)cc1`: the MIC came out at 400 µg/mL (≈ 995 µM) in the test on Pichia kudriavzevii; 800 µg/mL (≈ 1990 µM) in the test on Nakaseomyces glabratus; 800 µg/mL (≈ 1990 µM) in the test with Listeria monocytogenes; 800 µg/mL (≈ 1990 µM) in the test with Candida albicans; 800 µg/mL (≈ 1990 µM) against Staphylococcus aureus; 800 µg/mL (≈ 1990 µM) against Enterococcus faecalis [1]. The MIC in the test on Enterococcus faecalis [2], against Pseudomonas aeruginosa, with Klebsiella pneumoniae, against Escherichia coli [3] and against Escherichia coli [4] was 800 µg/mL (≈ 1990 µM) each time.
`COc1ccc(Nn2c(SCC(=O)c3ccc(Cl)cc3)nc(C)c2C)cc1`: the MIC with Pichia kudriavzevii was found to be 400 µg/mL (≈ 995 µM); against Nakaseomyces glabratus it was 400 µg/mL (≈ 995 µM); against Listeria monocytogenes, 400 µg/mL (≈ 995 µM); against Candida albicans, 400 µg/mL (≈ 995 µM); with Staphylococcus aureus it was 400 µg/mL (≈ 995 µM); against Enterococcus faecalis [1], 800 µg/mL (≈ 1990 µM). In addition, the MIC was 400 µg/mL (≈ 995 µM) with Enterococcus faecalis [2]; 800 µg/mL (≈ 1990 µM) against Pseudomonas aeruginosa; 400 µg/mL (≈ 995 µM) in the test with Klebsiella pneumoniae; 400 µg/mL (≈ 995 µM) with Escherichia coli [3]; 800 µg/mL (≈ 1990 µM) against Escherichia coli [4].
For the compound `COc1ccc(Nn2c(SCC(=O)c3ccc(Cl)c(Cl)c3)nc(C)c2C)cc1`, the MIC with Pichia kudriavzevii, against Nakaseomyces glabratus, in the test with Listeria monocytogenes, against Candida albicans, in the test on Staphylococcus aureus and with Enterococcus faecalis [1] was 800 µg/mL (≈ 1830 µM) throughout. Besides, the MIC came to 400 µg/mL (≈ 917 µM) with Enterococcus faecalis [2]; 400 µg/mL (≈ 917 µM) in the test with Pseudomonas aeruginosa; 800 µg/mL (≈ 1830 µM) against Klebsiella pneumoniae; 400 µg/mL (≈ 917 µM) with Escherichia coli [3]; 800 µg/mL (≈ 1830 µM) against Escherichia coli [4].
With `Cc1nc(SCC(=O)c2ccccc2)n(Nc2ccc(Cl)cc2)c1C`, the MIC in the test on Pichia kudriavzevii was determined as 800 µg/mL (≈ 2150 µM); in the test on Nakaseomyces glabratus it was 800 µg/mL (≈ 2150 µM); in the test with Listeria monocytogenes it was 400 µg/mL (≈ 1080 µM); with Candida albicans, 800 µg/mL (≈ 2150 µM); in the test with Staphylococcus aureus, 800 µg/mL (≈ 2150 µM); with Enterococcus faecalis [1] it was 800 µg/mL (≈ 2150 µM). In addition, the minimum inhibitory concentration (MIC) with Enterococcus faecalis [2] came to 200 µg/mL (≈ 538 µM); against Pseudomonas aeruginosa it was 400 µg/mL (≈ 1080 µM); in the test with Klebsiella pneumoniae, 800 µg/mL (≈ 2150 µM); against Escherichia coli [3], 800 µg/mL (≈ 2150 µM); in the test with Escherichia coli [4] it was 800 µg/mL (≈ 2150 µM).
For `COc1cccc(C(=O)CSc2nc(C)c(C)n2Nc2ccc(Cl)cc2)c1`, the MIC amounted to 200 µg/mL (≈ 498 µM) with Pichia kudriavzevii; 800 µg/mL (≈ 1990 µM) with Nakaseomyces glabratus; 1600 µg/mL (≈ 3980 µM) with Listeria monocytogenes; 800 µg/mL (≈ 1990 µM) against Candida albicans; 800 µg/mL (≈ 1990 µM) in the test with Staphylococcus aureus; 400 µg/mL (≈ 995 µM) against Enterococcus faecalis [1]. In addition, the MIC against Enterococcus faecalis [2] came out at 200 µg/mL (≈ 498 µM); against Pseudomonas aeruginosa it was 800 µg/mL (≈ 1990 µM); in the test with Klebsiella pneumoniae it was 400 µg/mL (≈ 995 µM); in the test with Escherichia coli [3], 800 µg/mL (≈ 1990 µM); with Escherichia coli [4], 800 µg/mL (≈ 1990 µM).
As to `COc1ccc(C(=O)CSc2nc(C)c(C)n2Nc2ccc(Cl)cc2)cc1`, the MIC was 200 µg/mL (≈ 498 µM) against Pichia kudriavzevii; 800 µg/mL (≈ 1990 µM) in the test with Nakaseomyces glabratus; 1600 µg/mL (≈ 3980 µM) in the test on Listeria monocytogenes; 800 µg/mL (≈ 1990 µM) in the test on Candida albicans; 400 µg/mL (≈ 995 µM) against Staphylococcus aureus; 400 µg/mL (≈ 995 µM) with Enterococcus faecalis [1]. Besides, the MIC against Enterococcus faecalis [2] stood at 200 µg/mL (≈ 498 µM); against Pseudomonas aeruginosa, 800 µg/mL (≈ 1990 µM); in the test with Klebsiella pneumoniae it was 400 µg/mL (≈ 995 µM); against Escherichia coli [3], 800 µg/mL (≈ 1990 µM); in the test with Escherichia coli [4], 800 µg/mL (≈ 1990 µM).
Consider `O=C(N[C@H](CO)[C@H](O)c1ccc([N+](=O)[O-])cc1)C(Cl)Cl` [CHLORAMPHENICOL], for which the MIC was 50 µg/mL (≈ 155 µM) with Listeria monocytogenes; 50 µg/mL (≈ 155 µM) with Staphylococcus aureus; 100 µg/mL (≈ 309 µM) with Enterococcus faecalis [1]; 12.5 µg/mL (≈ 38.7 µM) against Enterococcus faecalis [2]; 50 µg/mL (≈ 155 µM) with Pseudomonas aeruginosa; 50 µg/mL (≈ 155 µM) in the test on Klebsiella pneumoniae. Moreover, the MIC with Escherichia coli [3] stood at 50 µg/mL (≈ 155 µM); in the test on Escherichia coli [4] it was 25 µg/mL (≈ 77.4 µM).
On to `CC(=O)N1CCN(c2ccc(OCC3COC(Cn4ccnc4)(c4ccc(Cl)cc4Cl)O3)cc2)CC1` (centres undefined) [KETOCONAZOLE], for which the MIC in the test on Pichia kudriavzevii worked out at 50 µg/mL (≈ 94.1 µM); with Nakaseomyces glabratus, 100 µg/mL (≈ 188 µM); in the test with Candida albicans, 100 µg/mL (≈ 188 µM).
